Laboratory results: PMC5218480 (PLoS ONE, 2017)

System: MV-4-11 cells
Assay: Gene expression microarray analysis (Affymetrix PrimeView) and GSEA
Format: cell-based, human
Parameters: RFU PODN (11730768_x_at) / Fold change /veh PODN (11730768_x_at) / RFU LINC00158 (11744669_a_at) / Fold change /veh LINC00158 (11744669_a_at) / RFU DUSP10 (11751237_a_at) / Fold change /veh DUSP10 (11751237_a_at) / RFU ID3 (11757404_x_at) / Fold change /veh ID3 (11757404_x_at) / RFU PLEKHG5 (11737974_s_at) / Fold change /veh PLEKHG5 (11737974_s_at) / RFU LRRC4B (11730491_at) / Fold change /veh LRRC4B (11730491_at) / RFU GIMAP4 (11747438_a_at) / Fold change /veh GIMAP4 (11747438_a_at) / RFU KRT8 (11758183_x_at) / Fold change /veh KRT8 (11758183_x_at) / RFU CNN1 (11734310_a_at) / Fold change /veh CNN1 (11734310_a_at) / RFU VPS37D (11726825_at) / Fold change /veh VPS37D (11726825_at) / RFU C10orf10 (11716522_x_at) / Fold change /veh C10orf10 (11716522_x_at) / RFU KIR2DL2 /// KIR2DL4 /// KIR2DL5A /// KIR2DL5B /// KIR2DS1 /// KIR2DS2 /// KIR2DS3 /// KIR2DS4 /// KIR3DL3 /// KIR3DL3 /// KIR3DS1 (11738374_at) / Fold change /veh KIR2DL2 /// KIR2DL4 /// KIR2DL5A /// KIR2DL5B /// KIR2DS1 /// KIR2DS2 /// KIR2DS3 /// KIR2DS4 /// KIR3DL3 /// KIR3DL3 /// KIR3DS1 (11738374_at) / RFU C1QL1 (11718748_at) / Fold change /veh C1QL1 (11718748_at) / RFU TMPRSS4 (11747572_a_at) / Fold change /veh TMPRSS4 (11747572_a_at) / RFU HAMP (11756126_x_at) / Fold change /veh HAMP (11756126_x_at) / RFU RNFT2 (11725882_a_at) / Fold change /veh RNFT2 (11725882_a_at) / RFU NR4A2 (11747474_a_at) / Fold change /veh NR4A2 (11747474_a_at) / RFU ABCC12 (11746883_a_at) / Fold change /veh ABCC12 (11746883_a_at) / RFU TMEM136 (11760407_x_at) / Fold change /veh TMEM136 (11760407_x_at) / RFU CLDN22 /// WWC2 (11732394_at) / Fold change /veh CLDN22 /// WWC2 (11732394_at) / RFU HLA-DPB1 (11760878_x_at) / Fold change /veh HLA-DPB1 (11760878_x_at) / RFU SPINT1 (11716480_a_at) / Fold change /veh SPINT1 (11716480_a_at) / RFU GAP43 (11754022_s_at) / Fold change /veh GAP43 (11754022_s_at) / RFU A4GNT (11735810_at) / Fold change /veh A4GNT (11735810_at) / RFU PRB3 (11715151_x_at) / Fold change /veh PRB3 (11715151_x_at) / RFU TUBB4B (11761932_at) / Fold change /veh TUBB4B (11761932_at) / RFU CAPN14 (11732068_a_at) / Fold change /veh CAPN14 (11732068_a_at) / RFU TMCC2 (11721928_a_at) / Fold change /veh TMCC2 (11721928_a_at) / RFU IRGQ (11745062_a_at) / Fold change /veh IRGQ (11745062_a_at) / RFU FAM174B (11720279_a_at) / Fold change /veh FAM174B (11720279_a_at) / RFU TMPRSS4 (11748680_a_at) / Fold change /veh TMPRSS4 (11748680_a_at) / RFU FAM212B (11763350_a_at) / Fold change /veh FAM212B (11763350_a_at) / RFU PLEKHG5 (11743358_a_at) / Fold change /veh PLEKHG5 (11743358_a_at) / RFU ZSCAN30 (11745921_a_at) / Fold change /veh ZSCAN30 (11745921_a_at) / RFU CMKLR1 (11741424_a_at) / Fold change /veh CMKLR1 (11741424_a_at) / RFU LOC101060620 /// MAPK8IP1 (11723275_at) / Fold change /veh LOC101060620 /// MAPK8IP1 (11723275_at) / RFU SPTSSB (11747773_x_at) / Fold change /veh SPTSSB (11747773_x_at) / RFU PRSS12 (11739890_at) / Fold change /veh PRSS12 (11739890_at) / RFU BIN1 (11741810_x_at) / Fold change /veh BIN1 (11741810_x_at) / RFU WNT11 (11732464_a_at) / Fold change /veh WNT11 (11732464_a_at) / RFU C10orf10 (11716521_a_at) / Fold change /veh C10orf10 (11716521_a_at) / RFU C5orf56 (11738089_at) / Fold change /veh C5orf56 (11738089_at) / RFU CYB561 (11721691_x_at) / Fold change /veh CYB561 (11721691_x_at) / RFU ANKRD19P (11752326_a_at) / Fold change /veh ANKRD19P (11752326_a_at) / RFU OR2T12 /// OR2T33 /// OR2T8 (11738714_s_at) / Fold change /veh OR2T12 /// OR2T33 /// OR2T8 (11738714_s_at) / RFU VCAN (11748164_a_at) / Fold change /veh VCAN (11748164_a_at) / RFU JSRP1 (11732532_at) / Fold change /veh JSRP1 (11732532_at) / RFU KRTAP10-11 (11738290_x_at) / Fold change /veh KRTAP10-11 (11738290_x_at) / RFU MYO3A (11730013_a_at) / Fold change /veh MYO3A (11730013_a_at) / RFU EBF3 (11725865_a_at) / Fold change /veh EBF3 (11725865_a_at) / RFU CAMK2N1 (11719241_x_at) / Fold change /veh CAMK2N1 (11719241_x_at) / RFU C5orf56 (11738088_a_at) / Fold change /veh C5orf56 (11738088_a_at) / RFU OLFML3 (11715873_a_at) / Fold change /veh OLFML3 (11715873_a_at) / RFU LOC100653217 /// NTM (11731650_a_at) / Fold change /veh LOC100653217 /// NTM (11731650_a_at) / RFU MAPK11 (11762145_a_at) / Fold change /veh MAPK11 (11762145_a_at) / RFU FIZ1 (11724087_x_at) / Fold change /veh FIZ1 (11724087_x_at) / RFU OASL (11726364_x_at) / Fold change /veh OASL (11726364_x_at) / RFU SOX15 (11748057_x_at) / Fold change /veh SOX15 (11748057_x_at) / RFU CD79A (11719716_a_at) / Fold change /veh CD79A (11719716_a_at) / RFU HIST1H1D (11736915_at) / Fold change /veh HIST1H1D (11736915_at) / RFU CASKIN2 (11723855_a_at) / Fold change /veh CASKIN2 (11723855_a_at) / RFU LOC730098 (11760151_x_at) / Fold change /veh LOC730098 (11760151_x_at) / RFU OR4N2 (11742367_at) / Fold change /veh OR4N2 (11742367_at) / RFU PRRT2 (11749266_a_at) / Fold change /veh PRRT2 (11749266_a_at) / RFU SNX32 (11753110_a_at) / Fold change /veh SNX32 (11753110_a_at) / RFU CDHR5 (11726645_a_at) / Fold change /veh CDHR5 (11726645_a_at) / RFU RCAN1 (11760418_a_at) / Fold change /veh RCAN1 (11760418_a_at) / RFU FAM167A (11723789_a_at) / Fold change /veh FAM167A (11723789_a_at) / RFU FAM26E (11764081_at) / Fold change /veh FAM26E (11764081_at) / RFU ISYNA1 (11749810_s_at) / Fold change /veh ISYNA1 (11749810_s_at) / RFU ACY1 (11761880_at) / Fold change /veh ACY1 (11761880_at) / RFU 11764098_at / Fold change /veh 11764098_at / RFU SAMD14 (11745864_x_at) / Fold change /veh SAMD14 (11745864_x_at) / RFU NPB (11741838_a_at) / Fold change /veh NPB (11741838_a_at) / RFU TMPRSS6 (11731388_a_at) / Fold change /veh TMPRSS6 (11731388_a_at) / RFU KRTAP10-2 (11738614_at) / Fold change /veh KRTAP10-2 (11738614_at) / RFU ARHGAP8 /// PRR5-ARHGAP8 (11727945_x_at) / Fold change /veh ARHGAP8 /// PRR5-ARHGAP8 (11727945_x_at) / RFU KRTAP5-7 /// NADSYN1 (11734609_at) / Fold change /veh KRTAP5-7 /// NADSYN1 (11734609_at) / RFU RASL12 (11751679_a_at) / Fold change /veh RASL12 (11751679_a_at) / RFU CDKN2B (11736163_a_at) / Fold change /veh CDKN2B (11736163_a_at) / RFU PRF1 (11729649_at) / Fold change /veh PRF1 (11729649_at) / RFU, ZNF638 /// ZNF638-IT1 / Fold change vs veh, ZNF638 /// ZNF638-IT1 / RFU, PANK3 / Fold change vs veh, PANK3 / RFU, SH3YL1 / Fold change vs veh, SH3YL1 / RFU, ZEB2 / Fold change vs veh, ZEB2 / RFU, NRIP1 / Fold change vs veh, NRIP1 / RFU, PTTG1IP / Fold change vs veh, PTTG1IP / RFU, CAPN2 / Fold change vs veh, CAPN2 / RFU, MED14 / Fold change vs veh, MED14 / RFU, SNORA58 / Fold change vs veh, SNORA58 / RFU, C1orf63 / Fold change vs veh, C1orf63 / RFU, LRRFIP1 / Fold change vs veh, LRRFIP1 / RFU, NDUFAF7 / Fold change vs veh, NDUFAF7 / RFU, SLC12A2 / Fold change vs veh, SLC12A2 / RFU, IBTK / Fold change vs veh, IBTK / RFU, ESF1 / Fold change vs veh, ESF1 / Fold change vs veh, TMEM50B / RFU, TAOK1 / Fold change vs veh, TAOK1 / RFU, ACBD3 / Fold change vs veh, ACBD3 / RFU, TMA16 / Fold change vs veh, TMA16 / RFU, RWDD3 / Fold change vs veh, RWDD3 / RFU, BCAT1 / Fold change vs veh, BCAT1 / RFU, EDEM3 / Fold change vs veh, EDEM3 / RFU, TMEM33 / Fold change vs veh, TMEM33 / RFU, WDR75 / Fold change vs veh, WDR75 / RFU, AHCTF1 / Fold change vs veh, AHCTF1 / RFU, TFRC / Fold change vs veh, TFRC / RFU, ZDHHC17 / Fold change vs veh, ZDHHC17 / RFU, NOM1 / Fold change vs veh, NOM1 / RFU, ARL8B / Fold change vs veh, ARL8B / RFU, ZBTB11 / Fold change vs veh, ZBTB11 / RFU, TAMM41 / Fold change vs veh, TAMM41 / RFU, KIAA1704 /// LOC100996395 / Fold change vs veh, KIAA1704 /// LOC100996395 / RFU, ING1 / Fold change vs veh, ING1 / RFU, TRMT61B / Fold change vs veh, TRMT61B / RFU, FUBP3 / Fold change vs veh, FUBP3 / RFU, TP53 / Fold change vs veh, TP53 / RFU, TNKS2 / Fold change vs veh, TNKS2 / RFU, ZFP14 / Fold change vs veh, ZFP14 / RFU, ACTR2 / Fold change vs veh, ACTR2 / RFU, PPP3R1 / Fold change vs veh, PPP3R1 / RFU, PIK3R1 / Fold change vs veh, PIK3R1 / RFU, HNRNPA1 / Fold change vs veh, HNRNPA1 / RFU, RNF170 / Fold change vs veh, RNF170 / RFU, ZNF28 / Fold change vs veh, ZNF28 / RFU, RNGTT / Fold change vs veh, RNGTT / RFU, OGT / Fold change vs veh, OGT / RFU, BRD1 / Fold change vs veh, BRD1 / RFU, MARS / Fold change vs veh, MARS / RFU, ZNF655 / Fold change vs veh, ZNF655 / RFU, FAHD1 / Fold change vs veh, FAHD1 / RFU, BDP1 / Fold change vs veh, BDP1 / RFU, LRRCC1 / Fold change vs veh, LRRCC1 / RFU, ARID1A / Fold change vs veh, ARID1A / RFU, ZNF146 / Fold change vs veh, ZNF146 / RFU, ZNF330 / Fold change vs veh, ZNF330 / RFU, GPN3 / Fold change vs veh, GPN3 / RFU, C9orf123 / Fold change vs veh, C9orf123 / RFU, N4BP2L2 / Fold change vs veh, N4BP2L2 / RFU, ARFIP1 / Fold change vs veh, ARFIP1 / RFU, FAM179B / Fold change vs veh, FAM179B / RFU, BCL10 / Fold change vs veh, BCL10 / RFU, UHRF1BP1L / Fold change vs veh, UHRF1BP1L / RFU, BET1 / Fold change vs veh, BET1 / RFU, CNOT2 / Fold change vs veh, CNOT2 / RFU, ZNF268 / Fold change vs veh, ZNF268 / Fold change vs veh, ZNF507 / RFU, DGCR2 / Fold change vs veh, DGCR2 / RFU, WDSUB1 / Fold change vs veh, WDSUB1 / Fold change vs veh, HSP90B1 /// MIR3652 / RFU, ADSS / Fold change vs veh, ADSS / RFU, GK / Fold change vs veh, GK / RFU, ZNF148 / Fold change vs veh, ZNF148 / RFU, TAF9 / Fold change vs veh, TAF9 / RFU, SLC1A5 / Fold change vs veh, SLC1A5 / RFU, SLMO2 / Fold change vs veh, SLMO2 / RFU, ABCC4 / Fold change vs veh, ABCC4 / RFU, LOC101060439 /// RAP1B / Fold change vs veh, LOC101060439 /// RAP1B / RFU, RFX7 / Fold change vs veh, RFX7 / RFU, GTPBP10 / Fold change vs veh, GTPBP10 / RFU, CNEP1R1 / Fold change vs veh, CNEP1R1 / RFU, BIVM-ERCC5 /// ERCC5 / Fold change vs veh, BIVM-ERCC5 /// ERCC5 / RFU, ILF3 / Fold change vs veh, ILF3 / RFU 11762660_at / Fold change /veh 11762660_at / RFU VCAN (11757783_s_at) / Fold change /veh VCAN (11757783_s_at) / RFU DDX43 (11728927_at) / Fold change /veh DDX43 (11728927_at) / RFU KRT8 (11758188_x_at) / Fold change /veh KRT8 (11758188_x_at) / RFU NKD1 (11759106_at) / Fold change /veh NKD1 (11759106_at) / RFU SRD5A1 (11742802_a_at) / Fold change /veh SRD5A1 (11742802_a_at) / RFU TPSAB1 /// TPSB2 (11721975_s_at) / Fold change /veh TPSAB1 /// TPSB2 (11721975_s_at) / RFU GSTM3 (11746129_a_at) / Fold change /veh GSTM3 (11746129_a_at) / RFU IL23R (11737362_x_at) / Fold change /veh IL23R (11737362_x_at) / RFU TMEM51 (11727254_a_at) / Fold change /veh TMEM51 (11727254_a_at) / RFU PIWIL2 (11732686_x_at) / Fold change /veh PIWIL2 (11732686_x_at) / RFU ORM1 (11744905_x_at) / Fold change /veh ORM1 (11744905_x_at) / RFU CCDC152 (11743942_at) / Fold change /veh CCDC152 (11743942_at) / RFU ECM1 (11717891_a_at) / Fold change /veh ECM1 (11717891_a_at) / RFU IL23R (11748794_a_at) / Fold change /veh IL23R (11748794_a_at) / RFU TNFAIP8L3 (11732012_x_at) / Fold change /veh TNFAIP8L3 (11732012_x_at) / RFU MBOAT4 (11741988_at) / Fold change /veh MBOAT4 (11741988_at) / RFU 11764193_at / Fold change /veh 11764193_at / RFU TMEM53 (11763286_at) / Fold change /veh TMEM53 (11763286_at) / RFU MAGEB2 (11727129_at) / Fold change /veh MAGEB2 (11727129_at) / RFU TMEM200A (11744735_a_at) / Fold change /veh TMEM200A (11744735_a_at) / RFU CCDC152 (11751479_a_at) / Fold change /veh CCDC152 (11751479_a_at) / RFU FAM211A (11726209_a_at) / Fold change /veh FAM211A (11726209_a_at) / RFU RGS16 (11746705_a_at) / Fold change /veh RGS16 (11746705_a_at) / RFU VCAN (11755009_s_at) / Fold change /veh VCAN (11755009_s_at) / RFU RHOB (11743442_s_at) / Fold change /veh RHOB (11743442_s_at) / RFU RGS16 (11720943_a_at) / Fold change /veh RGS16 (11720943_a_at) / RFU RGS16 (11720944_at) / Fold change /veh RGS16 (11720944_at) / RFU, VPS4B / Fold change vs veh, VPS4B / RFU, CREB1 / Fold change vs veh, CREB1 / RFU, DNAJC13 / Fold change vs veh, DNAJC13 / RFU, GNAQ / Fold change vs veh, GNAQ / RFU, CDK5R1 / Fold change vs veh, CDK5R1 / RFU, ZRANB3 / Fold change vs veh, ZRANB3 / RFU, CUL4A / Fold change vs veh, CUL4A / RFU, CCNY / Fold change vs veh, CCNY / RFU, UFL1 / Fold change vs veh, UFL1 / RFU, COG3 / Fold change vs veh, COG3 / RFU, DIAPH2 / Fold change vs veh, DIAPH2 / RFU, SKA2 / Fold change vs veh, SKA2 / RFU, AFF3 / Fold change vs veh, AFF3 / RFU, LMF1 / Fold change vs veh, LMF1 / RFU, IPO11 / Fold change vs veh, IPO11 / RFU, DFFB / Fold change vs veh, DFFB / RFU, FOXP1 / Fold change vs veh, FOXP1 / RFU, CARD8 / Fold change vs veh, CARD8 / RFU, STRN3 / Fold change vs veh, STRN3 / RFU, ADK / Fold change vs veh, ADK / RFU, RASSF2 / Fold change vs veh, RASSF2 / RFU, WIPF1 / Fold change vs veh, WIPF1 / RFU, LARP1B / Fold change vs veh, LARP1B / RFU, RASA1 / Fold change vs veh, RASA1 / RFU, RB1 / Fold change vs veh, RB1 / RFU, PPFIA1 / Fold change vs veh, PPFIA1 / RFU, MAT2A / Fold change vs veh, MAT2A / RFU, CCT5 / Fold change vs veh, CCT5 / RFU, WDR92 / Fold change vs veh, WDR92 / RFU, CUX1 / Fold change vs veh, CUX1 / RFU, TTC7A / Fold change vs veh, TTC7A / RFU, TMEM135 / Fold change vs veh, TMEM135 / RFU, DEPTOR / Fold change vs veh, DEPTOR / RFU, CPM / Fold change vs veh, CPM / RFU, DNAJB6 / Fold change vs veh, DNAJB6 / RFU, CACNA2D3 / Fold change vs veh, CACNA2D3 / RFU, DTX4 / Fold change vs veh, DTX4 / RFU, TFCP2 / Fold change vs veh, TFCP2 / RFU, GMCL1 /// GMCL1P1 / Fold change vs veh, GMCL1 /// GMCL1P1 / RFU, AEBP2 / Fold change vs veh, AEBP2 / RFU, SNHG1 /// SNORD22 /// SNORD25 /// SNORD26 /// SNORD27 /// SNORD28 /// SNORD29 /// SNORD31 / Fold change vs veh, SNHG1 /// SNORD22 /// SNORD25 /// SNORD26 /// SNORD27 /// SNORD28 /// SNORD29 /// SNORD31 / Fold change (Aza/veh), C12orf56 (ProbeSet 11735607_a_at) / Fold change (ACY-1035/veh), C12orf56 (ProbeSet 11735607_a_at) / Fold change (Aza/veh), FGFR1OP (ProbeSet 11751329_s_at) / Fold change (ACY-1035/veh), FGFR1OP (ProbeSet 11751329_s_at) / Fold change (Aza/veh), VPS36 (ProbeSet 11739960_a_at) / Fold change (ACY-1035/veh), VPS36 (ProbeSet 11739960_a_at) / RFU SYPL1 (11715823_x_at) / Fold change /veh SYPL1 (11715823_x_at) / RFU IGFBP7 (11715501_s_at) / Fold change /veh IGFBP7 (11715501_s_at) / RFU REEP3 (11722064_at) / Fold change /veh REEP3 (11722064_at) / RFU IGLL1 (11728026_x_at) / Fold change /veh IGLL1 (11728026_x_at): dose or concentration left out as unconfirmed
Settings: MV-4-11 cells, 48 hours

For `Nc1ncn([C@@H]2O[C@H](CO)[C@@H](O)[C@H]2O)c(=O)n1` [azacitidine], the “RFU NR4A2 (11747474_a_at)” value was 22.61 RFU.
